{"source": "ChEMBL document CHEMBL6153102", "about": "“Rational Design, Synthesis, and Biological Evaluation of Novel c-Met Degraders for Lung Cancer Therapy” (J Med Chem, 2025)", "key": {"[1]": {"assay": "MRT (0 to t) in Sprague-Dawley rat at 5 mg/kg, ip measured upto 24 hrs by LC-MS/MS analysis", "assay_type": "ADME, organism-based", "conditions": "in vivo"}, "[2]": {"target": "T1, Protein cereblon/Hepatocyte growth factor receptor (Homo sapiens, UniProt P08581+Q96SW2)", "T1 sequence (P08581 25-1390 limits assumed)": "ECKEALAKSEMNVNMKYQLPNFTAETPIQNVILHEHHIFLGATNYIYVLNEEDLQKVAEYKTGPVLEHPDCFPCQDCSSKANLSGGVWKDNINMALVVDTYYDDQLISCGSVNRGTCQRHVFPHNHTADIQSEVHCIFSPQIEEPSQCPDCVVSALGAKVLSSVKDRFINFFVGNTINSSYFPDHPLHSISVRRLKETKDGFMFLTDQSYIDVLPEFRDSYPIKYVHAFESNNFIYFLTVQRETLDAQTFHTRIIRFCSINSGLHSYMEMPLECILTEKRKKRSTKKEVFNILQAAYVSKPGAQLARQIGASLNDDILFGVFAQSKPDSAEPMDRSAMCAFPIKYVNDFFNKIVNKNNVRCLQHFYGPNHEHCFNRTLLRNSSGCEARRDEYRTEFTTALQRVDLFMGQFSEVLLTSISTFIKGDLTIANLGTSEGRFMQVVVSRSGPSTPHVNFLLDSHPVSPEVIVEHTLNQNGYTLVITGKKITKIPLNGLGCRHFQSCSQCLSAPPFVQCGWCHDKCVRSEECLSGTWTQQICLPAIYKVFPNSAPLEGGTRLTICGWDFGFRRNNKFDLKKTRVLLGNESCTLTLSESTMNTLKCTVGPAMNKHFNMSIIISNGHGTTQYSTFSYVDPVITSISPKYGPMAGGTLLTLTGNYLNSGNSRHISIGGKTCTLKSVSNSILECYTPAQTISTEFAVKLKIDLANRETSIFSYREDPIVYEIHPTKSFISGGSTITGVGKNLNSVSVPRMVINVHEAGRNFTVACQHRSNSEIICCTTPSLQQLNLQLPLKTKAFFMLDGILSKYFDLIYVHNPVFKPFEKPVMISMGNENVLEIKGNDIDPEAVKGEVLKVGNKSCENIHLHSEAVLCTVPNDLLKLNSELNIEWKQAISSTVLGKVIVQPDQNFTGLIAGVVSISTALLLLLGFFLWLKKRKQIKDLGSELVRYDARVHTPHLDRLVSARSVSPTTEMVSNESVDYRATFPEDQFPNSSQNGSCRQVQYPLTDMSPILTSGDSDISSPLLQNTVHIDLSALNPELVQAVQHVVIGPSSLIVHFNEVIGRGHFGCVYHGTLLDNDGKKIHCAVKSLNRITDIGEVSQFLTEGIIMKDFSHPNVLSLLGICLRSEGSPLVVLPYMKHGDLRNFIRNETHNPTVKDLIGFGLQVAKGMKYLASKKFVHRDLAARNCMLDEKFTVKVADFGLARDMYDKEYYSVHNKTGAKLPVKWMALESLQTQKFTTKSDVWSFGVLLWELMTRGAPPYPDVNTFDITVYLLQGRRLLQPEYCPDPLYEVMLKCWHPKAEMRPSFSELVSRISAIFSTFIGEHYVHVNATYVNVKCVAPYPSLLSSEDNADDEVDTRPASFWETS", "T1 sequence (Q96SW2 whole entry partner)": "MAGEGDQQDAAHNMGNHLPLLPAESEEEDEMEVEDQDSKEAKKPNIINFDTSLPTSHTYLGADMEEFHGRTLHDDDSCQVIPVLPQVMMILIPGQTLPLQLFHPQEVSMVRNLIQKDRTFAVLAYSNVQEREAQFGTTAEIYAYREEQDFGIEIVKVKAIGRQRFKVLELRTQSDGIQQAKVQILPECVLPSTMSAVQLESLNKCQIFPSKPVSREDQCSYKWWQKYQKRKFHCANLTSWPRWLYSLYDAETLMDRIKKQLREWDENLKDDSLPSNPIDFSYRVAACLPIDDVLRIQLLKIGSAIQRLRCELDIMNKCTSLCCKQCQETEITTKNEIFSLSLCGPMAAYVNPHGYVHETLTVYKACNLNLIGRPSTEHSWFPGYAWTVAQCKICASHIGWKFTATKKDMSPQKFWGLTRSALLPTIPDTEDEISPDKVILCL", "assay": "PROTAC activity at c-Met/CRBN in human EBC-1 cells assessed as reduction in c-Met level at 15.6 nM incubated for 24 hrs by proteomics analysis", "assay_type": "cell-based"}, "[3]": {"assay": "Apparent volume of distribution in Sprague-Dawley rat at 2 mg/kg, iv measured upto 24 hrs by LC-MS/MS analysis", "assay_type": "ADME, organism-based", "conditions": "in vivo"}, "[4]": {"test_system": "EBC-1", "assay": "Induction of apoptosis in human EBC-1 cells assessed as necrotic cells at 5 nM incubated for 24 hrs by Annexin V/FITC staining based flow cytometry analysis (reference value: 0.35 %)", "assay_type": "functional"}, "[5]": {"target": "T1, Protein cereblon/Hepatocyte growth factor receptor", "assay": "PROTAC activity at c-Met/CRBN in human EBC-1 cells assessed as reduction in TPX2 level at 15.6 nM incubated for 24 hrs by proteomics analysis", "assay_type": "cell-based"}, "[6]": {"test_system": "EBC-1", "assay": "Antitumor activity against human EBC-1 cells xenografted BALB/c nude mouse assessed as reduction in tumor volume at 20 mg/kg, ip administered for 7 days", "assay_type": "functional", "set-up": "scale not given: the % may be the effect or the level left", "conditions": "time 7 day"}, "[7]": {"assay": "MRT (0 to infinity) in Sprague-Dawley rat at 5 mg/kg, ip measured upto 24 hrs by LC-MS/MS analysis", "assay_type": "ADME, organism-based", "conditions": "in vivo"}, "[8]": {"assay": "Stability in rat plasma assessed as half life", "assay_type": "ADME, cell-free"}, "[9]": {"test_system": "EBC-1", "assay": "PROTAC activity at c-Met […] mutant /CRBN in human EBC-1 cells assessed as induction of c-Met degradation incubated for 24 hrs by Western blotting analysis", "assay_type": "cell-based", "conditions": "dose <= 1000.0 nM"}, "[10]": {"target": "T1, Protein cereblon/Hepatocyte growth factor receptor", "assay": "PROTAC activity at c-Met/CRBN in human EBC-1 cells assessed as induction of c-Met degradation at 15.6 nM by Western blotting analysis", "assay_type": "cell-based", "conditions": "time 72.0 hrs"}, "[11]": {"assay": "Toxicity in BALB/c nude mouse assessed as spleen damage at 10 to 20 mg/kg, ip administered for 7 days by H and E staining based analysis", "assay_type": "organism-based", "conditions": "in vivo, 168 h, dose 10-20 mg/kg, time 7 day"}}, "note": "Active and inactive are the calls of the source. No cut-off for these calls is given here."}
{"smiles": "COc1ccc(C(=O)N2CCC3(CCN(C(=O)CN4CCC(COc5cnc(-c6cccc(Cn7nc(-c8cccc(C#N)c8)ccc7=O)c6)nc5)CC4)CC3)CC2)cc1N1CCC(=O)NC1=O", "values": [{"measurement": "MRT last at 24 h", "setting": "[1]", "result": 5.06, "unit": "h"}, {"measurement": "Activity", "setting": "[2]", "result": "Active"}, {"measurement": "Vz", "setting": "[3]", "result": 13.13, "unit": "L/kg"}, {"measurement": "Activity", "setting": "[4]", "result": 0.42, "unit": "%"}, {"measurement": "Activity", "setting": "[5]", "result": "Active"}, {"measurement": "Activity", "setting": "[6]", "result": 86.14, "unit": "%"}, {"measurement": "MRT inf", "setting": "[7]", "result": 6, "unit": "h"}, {"measurement": "half-life", "setting": "[8]", "result": "> 2", "unit": "h"}, {"measurement": "Activity", "setting": "[9]", "result": "Dose-dependent-effect"}, {"measurement": "Activity", "setting": "[10]", "result": "Time-dependent-effect"}, {"measurement": "Activity", "setting": "[11]", "result": "Non-toxic"}]}
